Results reported in US12503426B2, “Synthetic derivatives of oleoyl-lysophosphatidylinositol (oleoyl-LPI) and uses thereof” (LIPOVEXA SRL, priority 2017, dated 2025).
pEC50: −log10 of the molar value.

Experiments:
[1] = tested on: colonic cells of the GI tract obtained from guinea pig; assay: Ex vivo GLP-1 biosynthesis and secretion, guinea pig GI tract cells; type: cell-based
Summary of the method: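 Colonic/rectal crypts and cells from a pregnant guinea pig, collagenase-P digested and cultured one day on Matrigel, then exposed 2 h at 37 °C in serum-free DMEM with KR-62436 10 μg/ml and compound (20 μM, quadruplicate; EC50 also determined). Active GLP-1 in supernatant measured by ELISA, normalised to DMSO control.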

[2] = tested on: NCI-H716 cells; assay: GLP-1 secretion by NCI-H716 cells (Examples 2-8); type: cell-based, human; details: 2 hours
Procedure: NCI-H716 cells were maintained in 75 cm^2 tissue culture flasks (Corning) in RPMI 1640 media containing 2.0 mM L-glutamine, 1.5 g/L sodium bicarbonate, 10 mM HEPES buffer, 1.0 mM sodium pyruvate, and 4.5 g/L glucose and supplemented with 10% FBS at a 37° C. and 5% CO2. When plating for experiment, cell adhesion and endocrine differentiation were initiated by growing cells in dishes coated with growth factor reduced Matrigel diluted at the ratio of 1:2 (Becton Dickinson, Bedford, MA) in high-glucose DMEM, 10% FBS, 2 mM glutamine, 100 IU/ml penicillin, and 100 μg/ml streptomycin as described previously by De Bruine, a P., Dinjens, W. N., van der Linden, E. P., Pijls, M. M., Moerkerk, P. T., & Bosman, F. T. (1993) The American Journal of Pathology, Vol 142(3), pp 773-782, the disclosure of which is incorporated herein in its entirety by reference.
Approximately 80,000 Glutag cells were plated in poly-L-lysine-coated 24-well culture plates and grown to about 80% confluence. NCI-H716 cells were seeded on growth factor reduced Matrigel™ (Becton Dickinson, Bedford, MA) in DMEM medium, supplemented with 10% FBS the day before the experiment. For NCI-H716 cells, approximately 25,000 cells were needed for this secretion experiment in order to have good stimulation with lower basal GLP-1 secretion. In brief, Glutag and NCI-H716 cells were washed twice and then incubated for 2 h with FBS-free DMEM containing 1% (M:C) alone (negative control), 10 μM forskolin as positive control (Sigma-Aldrich), or with different concentrations of Oleoyl-LPI. M:C was used as a solvent to prepare stock solutions of fatty acid derivatives and inhibitors. For secretion experiments, medium and cells were collected separately.
In separate studies, GLUTag or NCI-H716 cells were pre-treated for 1 hour with medium alone (1% DMSO, negative control), PD98059 (50 μM; Sigma Chemical Co.), H89 (10 μM; Santa Cruz) followed by treatment with oleoyl-LPI (20 μM), OEA (10 μM), AR231453(1 μM), PMA (10 μM) or forskolin (10 μM, positive control) in the presence of inhibitors, as appropriate, for about 2 h. Medium GLP-1 secretion was calculated as total GLP-1 content of medium normalised for the basal secretion of the control.
In order to investigate the role of different LPI species in enteroendocrine cells, murine (Glutag) and human (NCI-H716) L-cells were stimulated with the following different species of LPI: Arachidonyl-LPI, Stearoyl-LPI, Heptadecenoyl-LPI and oleoyl-LPI, as well as with OEA and LPC. Experiments were performed in duplicate, n=4 and the level of total GLP-1 was measured by ELISA.

[3] = tested on: Glutag cells; assay: GLP-1 secretion by Glutag cells; type: cell-based, murine; details: 2 hours
Summary of the method: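 Murine GLUTag and human NCI-H716 L-cells were incubated 2 h in FBS-free DMEM with LPI species, OEA or LPC, with optional 1 h pretreatment with PD98059 (50 μM) or H89 (10 μM). Total medium GLP-1 was measured by ELISA and normalised to basal control secretion.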

pEC50 ([1]; ex vivo incubation 2 hours, quadruplicates): 4.49
Substance: oleoyl-lysophosphatidylinositol [oleoyl-LPI]
GLP-1 biosynthesis and secretion ex vivo ([1]; 20 μM, 2 hours, standardized against DMSO control): stimulated biosynthesis and secretion
GLP-1 secretion ([2]; NCI-H716 cells, normalised as percentage of cells treated with vehicle (control)): 124±7.4%
effect of down-regulation of GPR55 on GLP-1 secretion ([2]; siGPR55 transfected NCI-H716 cells, oleoyl-LPI 20 μM): no effect on GLP-1 secretion
GLP-1 secretion in siGPR119-transfected cells ([2]; siGPR119 transfected NCI-H716 cells, oleoyl-LPI 20 μM): significantly reduced the GLP-1 secretion to the basal level
GLP-1 secretion ([3]; Glutag cells, normalised as percentage of cells treated with vehicle (control)): 126±5%
effect of down-regulation of GPR55 on GLP-1 secretion ([3]; siGPR55 transfected Glutag cells, oleoyl-LPI 20 μM): no effect on GLP-1 secretion
GLP-1 secretion in siGPR119-transfected cells ([3]; siGPR119 transfected Glutag cells, oleoyl-LPI 20 μM): significantly reduced the GLP-1 secretion to the basal level
